Results reported in ChEMBL document CHEMBL1128428, “Inhibition of matrix metalloproteinases by hydroxamates containing heteroatom-based modifications of the P1' group” (J Med Chem, 1995).

target: T1, Interstitial collagenase (Homo sapiens, UniProt P03956)
T1 sequence (P03956 whole entry): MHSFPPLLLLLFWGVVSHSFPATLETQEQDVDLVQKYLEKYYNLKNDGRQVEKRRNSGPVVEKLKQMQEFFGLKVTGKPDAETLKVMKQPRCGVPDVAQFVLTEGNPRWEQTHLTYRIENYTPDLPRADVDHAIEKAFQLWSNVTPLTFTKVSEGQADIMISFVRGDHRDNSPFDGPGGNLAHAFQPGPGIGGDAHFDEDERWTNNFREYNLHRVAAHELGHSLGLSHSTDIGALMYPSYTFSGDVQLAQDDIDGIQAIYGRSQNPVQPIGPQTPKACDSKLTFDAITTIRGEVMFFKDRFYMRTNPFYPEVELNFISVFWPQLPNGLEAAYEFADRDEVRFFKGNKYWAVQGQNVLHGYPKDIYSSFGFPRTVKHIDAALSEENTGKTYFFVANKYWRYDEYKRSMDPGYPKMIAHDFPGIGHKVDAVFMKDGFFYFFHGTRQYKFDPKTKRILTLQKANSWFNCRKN

Compared with `CC(C)(C)[C@H](NC(=O)[C@H](CCCCOc1ccccc1)CC(=O)NO)C(=O)NCCC(=O)O`, `CC(C)(C)[C@H](NC(=O)[C@H](CCCCOc1ccccc1)CC(=O)NO)C(=O)NCCCC(=O)O` is 2.3-fold lower in Ki: 140 nM for the first, 62 nM for the second. The second binds more tightly here.

Compared with `CNC(=O)[C@@H](NC(=O)[C@H](CCCCOc1ccc(C(C)(C)C)cc1)CC(=O)NO)C(C)(C)C`, `CNC(=O)[C@@H](NC(=O)[C@H](CCCCOc1ccc(F)cc1)CC(=O)NO)C(C)(C)C` is 32-fold lower in Ki: 350 nM for the first, 11 nM for the second.

Compared with `CNC(=O)[C@@H](NC(=O)[C@H](CCCCOc1ccc(Cl)c(Cl)c1)CC(=O)NO)C(C)(C)C`, `CNC(=O)[C@@H](NC(=O)[C@H](CCCCOc1cccc(Cl)c1)CC(=O)NO)C(C)(C)C` is 1.5-fold higher in Ki: 95 nM for the first, 143 nM for the second.

First: CNC(=O)[C@@H](NC(=O)[C@H](CCCCOc1ccccc1)CC(=O)NO)C(C)(C)C
Second: CNC(=O)[C@@H](NC(=O)[C@H](CCCCOc1cccc(C)c1)CC(=O)NO)C(C)(C)C
The Ki of the first is 5.3-fold lower: 3 nM for the first, 16 nM for the second. The first binds more tightly here.

Compared with `CC(C)(C)[C@H](NC(=O)[C@H](CCCCOc1ccc(Cl)cc1)CC(=O)NO)C(=O)NCCCN1CCOCC1`, `CC(C)(C)[C@H](NC(=O)[C@H](CCCCOc1ccc(Cl)cc1)CC(=O)NO)C(=O)NCCN1CCCC1` is 8-fold higher in Ki: 10 nM for the first, 80 nM for the second.

Compared with `CCCCCc1ccc(OCCCC[C@H](CC(=O)NO)C(=O)N[C@H](C(=O)NC)C(C)(C)C)cc1`, `CCCc1ccc(OCCCC[C@H](CC(=O)NO)C(=O)N[C@H](C(=O)NC)C(C)(C)C)cc1` is 11-fold lower in Ki: 1900 nM for the first, 170 nM for the second. The second binds more tightly here.

Going from `CC(C)(C)[C@H](NC(=O)[C@H](CCCCOc1ccc(Cl)cc1)CC(=O)NO)C(=O)NCCc1ccccc1` to `CC(C)(C)[C@H](NC(=O)[C@H](CCCCOc1ccc(Cl)cc1)CC(=O)NO)C(=O)NCCc1ccccn1`, the Ki falls from 580 nM to 80 nM (7.2-fold). The second binds more tightly here.

First: CNC(=O)[C@H](Cc1ccccc1)NC(=O)[C@H](CCCC(=O)NCc1ccccc1)CC(=O)NO
Second: CNC(=O)[C@H](Cc1ccccc1)NC(=O)[C@H](CCCC(=O)NCCc1ccccc1)CC(=O)NO
The Ki of the first is 7.4-fold higher: 9600 nM for the first, 1300 nM for the second. The second binds more tightly here.

Compared with `CNC(=O)[C@@H](NC(=O)[C@H](CCCCOc1ccc(OC)cc1)CC(=O)NO)C(C)(C)C`, `CNC(=O)[C@@H](NC(=O)[C@H](CCCCOc1cccc(OC)c1)CC(=O)NO)C(C)(C)C` is higher in Ki: < 1 nM for the first, 72 nM for the second.

First: CC(C)(C)[C@H](NC(=O)[C@H](CCCCOc1ccc(Cl)cc1)CC(=O)NO)C(=O)NCCc1ccc(S(N)(=O)=O)cc1
Second: CNC(=O)[C@@H](NC(=O)[C@H](CCCCOc1ccc(C(C)C)cc1)CC(=O)NO)C(C)(C)C
The Ki of the first is 2-fold higher: 61 nM for the first, 30 nM for the second. The second binds more tightly here.

First: CNC(=O)[C@H](Cc1ccccc1)NC(=O)[C@H](CCCCO)CC(=O)NO
Second: CNC(=O)[C@H](Cc1ccccc1)NC(=O)[C@H](CCCCCO)CC(=O)NO
The Ki of the first is 2.1-fold higher: 64 nM for the first, 31 nM for the second.

target: Neutrophil collagenase (Homo sapiens, UniProt P22894)
Sequence (P22894 whole entry): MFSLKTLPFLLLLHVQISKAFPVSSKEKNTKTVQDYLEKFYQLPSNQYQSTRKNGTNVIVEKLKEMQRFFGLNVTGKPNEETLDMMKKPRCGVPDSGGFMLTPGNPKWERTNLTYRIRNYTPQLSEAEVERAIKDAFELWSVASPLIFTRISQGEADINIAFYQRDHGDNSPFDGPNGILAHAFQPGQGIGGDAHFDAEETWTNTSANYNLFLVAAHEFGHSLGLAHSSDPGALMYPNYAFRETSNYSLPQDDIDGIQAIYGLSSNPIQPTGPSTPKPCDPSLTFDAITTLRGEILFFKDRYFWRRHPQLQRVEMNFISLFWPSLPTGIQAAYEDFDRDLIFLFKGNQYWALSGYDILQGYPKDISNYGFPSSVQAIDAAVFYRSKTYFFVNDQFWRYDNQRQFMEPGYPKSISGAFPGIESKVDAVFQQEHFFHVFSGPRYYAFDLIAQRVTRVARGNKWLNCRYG

First: CCCC(=O)NCCCC[C@H](CC(=O)NO)C(=O)N[C@@H](Cc1ccccc1)C(=O)NC
Second: CCCNC(=O)CCC[C@H](CC(=O)NO)C(=O)N[C@@H](Cc1ccccc1)C(=O)NC
The Ki of the first is 6-fold higher: 12 nM for the first, 2 nM for the second.

`CNC(=O)[C@H](Cc1ccccc1)NC(=O)[C@H](CCCCOc1ccccc1)CC(=O)NO` and `CNC(=O)[C@H](Cc1ccccc1)NC(=O)[C@H](CCCCCOc1ccccc1)CC(=O)NO` cannot be ordered by Ki: < 2 nM for the first, < 2 nM for the second.

`CNC(=O)[C@H](Cc1ccccc1)NC(=O)[C@H](CCCC(=O)NCc1ccccc1)CC(=O)NO` and `CNC(=O)[C@H](Cc1ccccc1)NC(=O)[C@H](CCCC(=O)NCCc1ccccc1)CC(=O)NO` are within 1.5-fold of each other in Ki: 30 nM for the first, 32 nM for the second.

Compared with `CNC(=O)[C@H](Cc1ccccc1)NC(=O)[C@H](CCCCCOCc1ccccc1)CC(=O)NO`, `CNC(=O)[C@H](Cc1ccccc1)NC(=O)[C@H](CCCCCO)CC(=O)NO` is 2-fold higher in Ki: 2 nM for the first, 4 nM for the second. The first binds more tightly here.
